The nature of data set [1]: Solubility determined by HPLC. Conditions: plasma or biological fluid; α-Minimal Essential Media (α-MEM) containing 5% Fetal Calf Serum (FCS). The class given is physicochemical. The protocol:
Table Footnote: ^aDetermined in α-Minimal Essential Media (α-MEM) containing 5% Fetal Calf Serum (FCS). ^bDetermined in Phosphate Buffered Saline (PBS) containing 2 equivalents of sodium bicarbonate. ^cDetermined in Lactate Buffer at pH=4.
Solubility and stability of compounds in media (+5% Fetal calf serum), phosphate buffered saline (+sodium bicarbonate) or lactate buffer (at pH=4) were determined by HPLC.

Data set [2] relates to HCT116 MCLs over-expressing AKR1C3. Kind of data set: Multicellular layer (MCL) clonogenic assay, HCT116 wild type versus AKR1C3 over-expressing MCLs. The class given is cell-based, human.
Data set [3] has as its system bacterial nitroreductases from the NfsA and NfsB families. Kind of data set: GFP SOS assay with nitroreductase over-expression library. The class given is cell-based, E. coli strain SOS-R4. The settings on record: single and poly mutated variants of NfsA_Ec, single-mutated variant of NfsA_Bs.
Data set [4] concerns H1299 cells engineered to over-express E coli NfsA. Kind of data set: Low cell density IC50 (SRB) assay, H1299 wild type versus E coli NfsA over-expressing cells. The class given is cell-based, human.
The subject of data set [5] is 15% E coli NfsA-expressing H1299 xenografts. Kind of data set: Tumour growth delay, 15% E coli NfsA-expressing H1299 xenografts. The class given is in vivo, NIH-III mice.
The subject of data set [6] is HCT116, H460, H1299 and SiHa wild type cancer cell lines. Kind of data set: Oxic versus anoxic low cell density IC50 assay, wild type cancer cell lines. The class given is cell-based, human. The settings on record: 4 h anoxia during prodrug exposure versus oxic. The protocol:
(§1) Compounds were subjected to testing, including low-cell density cytotoxicity assay. Cells (500 cells/well) were seeded in 96-well plates and exposed to prodrug for 4 h, washed, then left to grow for a further 5 days. The SRB assay was employed to determine IC50 values (concentration of prodrug required to inhibit proliferation by 50%). Parental HCT116 cells (HCT116 is a cell line derived from human colon cancer) and cells expressing the example nitroreductase gene nfsA from Escherichia coli were evaluated head-to-head. Parental H1299 cells (H1299 is a cell line derived from lung cancer) and cells expressing the example nitroreductase gene nfsA from Escherichia coli were evaluated head-to-head. Parental HCT116 cells and cells expressing human AKR1C3 were evaluated head-to-head. Parental H1299 cells and cells expressing human AKR1C3 were evaluated head-to-head. In a variation of these assays test compounds were assessed for their ability to give hypoxia-selective cell killing. Here wild type HCT116, H460 (H460 is a cell line derived from lung cancer), H1299 and SiHa cells (SiHa is a cell line derived from cervical cancer) were used in addition to HCT116 cells engineered to over express cytochrome P450 reductase (HCT116 POR), a human one-electron nitroreductase. Low-cell density cytotoxicity assays were performed as above under oxic conditions and compared to experiments where cells were shown 4 h of anoxia during the prodrug exposure period, before being washed free of prodrug and then left to grow for a further 5 days under oxic conditions, as above.

The test system of data set [7] is H1299 cells engineered to over-express human aldo-ketoreductase 1C3 (AKR1C3). Kind of data set: Low cell density IC50 (SRB) assay, H1299 wild type versus AKR1C3 over-expressing cells. The class given is cell-based. Conditions: 4 h exposure. The protocol: as §1
Data set [8] deals with bacterial nitroreductases from the NfsA and NfsB families. Kind of data set: GFP SOS assay with nitroreductase over-expression library. The class given is cell-based, E. coli strain SOS-R4. Conditions: 55 candidate nitroreductase library, 6 h challenge.
Data set [9] deals with HCT116 POR cell line (over-expressing Cytochrome P450 reductase). The data set is described as follows: Oxic versus anoxic low cell density IC50 assay, HCT116 POR cells. The class given is cell-based, human. The settings on record: HCT116 POR cell line compared with wild type. The protocol: as §1, with “Low-cell density cytotoxicity assays were performed as above under oxic conditions and compared to experiments where cells were shown 4 h of anoxia during the prodrug exposure period, before being washed free of prodrug and then left to grow for a further 5 days under oxic conditions, as above.” left out

Data set [10] concerns HCT116 MCLs with 3% E coli NfsA-expressing cells. Kind of data set: MCL clonogenic bystander assay, HCT116 MCLs seeded with 3% E coli NfsA-expressing cells. The class given is cell-based, human. Conditions: 97% wild type HCT116, 3% E coli NfsA-expressing cells.
The subject of data set [11] is HCT116 cells engineered to over-express human aldo-ketoreductase 1C3 (AKR1C3). Kind of data set: Low cell density IC50 (SRB) assay, HCT116 wild type versus AKR1C3 over-expressing cells. The class given is cell-based. Conditions: 4 h exposure.
In data set [12] the test system is HCT116 cells engineered to over-express E coli NfsA. The data set is described as follows: Low cell density IC50 (SRB) assay, HCT116 wild type versus E coli NfsA over-expressing cells. The class given is cell-based, human.
In data set [13] the test system is wild type SiHa tumour xenografts. The data set is described as follows: Excision assay with and without radiation, wild type SiHa tumour xenografts. The class given is in vivo, NIH-III nude mice. Conditions: for cell killing in combination with radiation versus radiation alone: HCT116 POR and wild type SiHa xenografts, 10 or 15Gy, single (or BID) intraperitoneal dose; for hypoxic cell kill in vivo (log cell kill): with or without 10Gy radiation, 22 at 422, 300 and 11 at 1330, 23 at 1000 umol/kg. The protocol: (§2) Tumours were grown subcutaneously in the flank of NIH-III mice by inoculating cells grown in tissue culture. Tumours were monitored using electronic calipers. When tumours reached treatment size, mice were randomized to treatment groups (five to seven per group). Compounds were given as single (or BID) intraperitoneal doses alone or 5 min after whole body irradiation (^60Co source). Eighteen hours after treatment, tumours were excised, weighed, minced, dissociated enzymatically, and plated to determine clonogenicity. Clonogens/gram of tissue were calculated relative to controls and effects of treatment were tested for significance (ANOVA with Dunnett's).

Data set [14] relates to 15% E coli NfsA-expressing HCT116 xenografts. The data set is described as follows: Tumour growth delay, 15% E coli NfsA-expressing HCT116 xenografts. The class given is in vivo, NIH-III mice. The settings on record: single dose; 10, 22 and 60 at 1000, 422 and 1330 umol/kg. The protocol:
Animals weighed 18-25 g at the time of tumour inoculation. Tumours were grown subcutaneously on the right flank of mice by inoculating cells grown in tissue culture (1×10^7 cells in 100 uL serum free α-MEM). Tumour sizes were monitored three times weekly using electronic callipers and treatments were initiated once tumour diameter reached ≥7 mm.
Tumour bearing mice were randomised into the appropriate treatment groups and tumour size and body weight recorded. Test compounds were formulated on the day of the experiment and kept in foil-wrapped tubes out of direct fluorescent light. If recruitment of animals occurred over multiple days, the drug stocks were aliquoted into tubes and frozen once at […] until required. Mice were treated with a single (or BID) dose of prodrug by intraperitoneal injection and thereafter tumour size and body weight was monitored every second day. Tumour volume was calculated as π (l×w×w)/6, where l is the major axis and w is the perpendicular minor axis. Animals were culled when they had reached the appropriate survival endpoint or when body weight loss exceeded 20% of the pre-treatment value.

The test system of data set [15] is HCT116 tumour xenografts over-expressing Cytochrome P450 reductase. Kind of data set: Excision assay with and without radiation, HCT116 POR tumour xenografts. The class given is in vivo, mice. Conditions: 1330 μmol/kg, with or without 15Gy radiation. The protocol: as §2

What is called solubility is the dissolved amount per volume that the medium holds. Low values mean little dissolved substance, high ones much dissolved substance.

Converted amounts (≈) assume the structure as drawn. “Also recorded” adds a separate entry of the source.

As for `CS(=O)(=O)c1cc([N+](=O)[O-])c(C(N)=O)cc1N(CCBr)CCBr` [compound 4], the concentration in solution in data set [1] (solubility) came to 68 µM (≈ 32.2 µg/mL).
Turning to `CN1CCN(C(=O)c2cc(N(CCBr)CCBr)c(S(C)(=O)=O)cc2[N+](=O)[O-])CC1` [compound 22, (5-(bis(2-bromoethyl)amino)-4-(methylsulfonyl)-2-nitrophenyl)(4-methylpiperazin-1-yl)methanone], the “AKR1C3-dependent clonogenic cell kill in MCLs” value in [2] was “do not cause AKR1C3-dependant cytotoxicity”. In data set [3], the “activity with mutated nitroreductase variants” value is given as “demonstrated”. Moreover, the “E coli NfsA-mediated cytotoxicity (IC50 wild type versus NfsA)” value in data set [4] and in [12] was “produce E coli NfsA-mediated cytotoxicity” each time. Moreover, the “E coli NfsA mediated anti-tumour efficacy (mean tumour volume)” value in [5] (500 umol/kg twice daily (BID), total 1000 umol/kg) is given as “display significant E coli NfsA mediated anti-tumour efficacy”; in [5] (single dose, 10, 22, 60 and 11 at 750, 422, 1330 and 1330 umol/kg) it was “display significant E coli NfsA mediated anti-tumour efficacy”; in [14] it was “display significant E coli NfsA mediated anti-tumour efficacy”. Besides, the tumour growth delay result in data set [5] (mixed HCT116 and H1299 xenografts, 15% E coli NfsA cells, single (or BID) intraperitoneal dose) was “profound tumour growth delay”. Also, the hypoxia-dependent cytotoxicity result in data set [6] is on record as “increased cytotoxicity in cells under hypoxia”. Besides, the “AKR1C3-mediated cytotoxicity (IC50 wild type versus AKR1C3)” value in data set [7] and in data set [11] was “less susceptible to AKR1C3-mediated cytotoxicity than PR-104A” throughout. In addition, the “metabolism by bacterial nitroreductases (SOS response)” value in data set [8] is “substrates for multiple wild type and mutant bacterial nitroreductases from the NfsA and NfsB families”. Further, the “Hypoxic Cytotoxicity Ratios (HCR)” value in data set [9] is “Larger HCRs; also recorded: The degree of this effect was increased”. Moreover, the “bystander cell killing in MCLs” value in data set [10] was “display evidence of metabolism by the 3% E coli NfsA-expressing cells with bystander cell killing of the 97% non-expressing neighbour cells”. Further, in data set [13], the “cell killing in combination with radiation versus radiation alone” value is recorded as “increased cell killing above what could be achieved with radiation alone”. For the same molecule, the “hypoxic cell kill in vivo (log cell kill)” value in [13] is reported as “significant hypoxic cell kill in vivo”.
With `CS(=O)(=O)c1cc([N+](=O)[O-])c(C(=O)NCCOP(=O)(O)O)cc1N(CCBr)CCBr` [compound 300, 2-(5-(bis(2-bromoethyl)amino)-4-(methylsulfonyl)-2-nitrobenzamido)ethyl dihydrogen phosphate], in data set [15], the “hypoxic cell kill in vivo (log cell kill)” value is “significant hypoxic cell kill in vivo”. In data set [13], the “cell killing in combination with radiation versus radiation alone” value is on record as “increased cell killing above what could be achieved with radiation alone” and the “hypoxic cell kill in vivo (log cell kill)” value is “significant hypoxic cell kill in vivo”.

The record behind these values is patent US10202408B2, “Prodrugs and methods of use thereof” (Health Innovation Ventures B.V., priority 2012, dated 2019).
